Assay results from the supplement of paper PMC10307832.

Columns and labels:
Experiment in all cases: relative viability (nuclei count vs DMSO), 5 days (fraction); higher = more cells survive
NCI-H23 = test system: NCI-H23
In short: (§1)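 Lung cancer cell lines, seeded in 1536-well plates, were treated the following day by pin tool with a single drug or with five library-drug doses (not always all listed) in √10 steps on top of a fixed anchor-drug dose. Cells were fixed and nuclei stained in one step after 5 days, and nuclei were counted. Relative viability is the nuclei count for treated wells divided by that for vehicle wells, reported as medians of duplicate plates.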

COR-L 105 = test system: COR-L 105
In short: as §1

H3255 = test system: H3255
In short: as §1

NCI-H520 = test system: NCI-H520
In short: as §1

LK-2 = test system: LK-2
In short: as §1

NCI-H596 = test system: NCI-H596
In short: as §1

NCI-H441 = test system: NCI-H441
In short: as §1

PC-3 [JPC-3] = test system: PC-3 [JPC-3]
In short: as §1

ChaGo-K-1 = test system: ChaGo-K-1
In short: as §1

SW 900 = test system: SW 900
In short: as §1

NCI-H1975 = test system: NCI-H1975
In short: as §1

NCI-H1734 = test system: NCI-H1734
In short: as §1

HCC-366 = test system: HCC-366
In short: as §1

LOU-NH91 = test system: LOU-NH91
In short: as §1

A-427 = test system: A-427
In short: as §1

SK-MES-1 = test system: SK-MES-1
In short: as §1

EMC-BAC-2 = test system: EMC-BAC-2
In short: as §1

EKVX = test system: EKVX
In short: as §1

NCI-H1666 = test system: NCI-H1666
In short: as §1

NCI-H1755 = test system: NCI-H1755
In short: as §1

NCI-H2170 = test system: NCI-H2170
In short: as §1

Compound `O=c1cc(N2CCOCC2)oc2c(-c3cccc4c3sc3ccccc34)cccc12` + O=C(CCCCCCC(=O)Nc1ccccc1)NO [Vorinostat] (partner 1 µM) has a relative viability (NCI-H23; first compound 0.01 µM) of 0.555, a relative viability (NCI-H23; first compound 0.03162 µM) of 0.68 and a relative viability (NCI-H23; first compound 0.3162 µM) of 0.795. It also gave a relative viability (NCI-H23; first compound 1 µM) of 0.537, a relative viability (COR-L 105; first compound 0.01 µM) of 0.764 and a relative viability (COR-L 105; first compound 0.03162 µM) of 0.788. The relative viability (COR-L 105; first compound 0.1 µM) was 0.899, the relative viability (COR-L 105; first compound 0.3162 µM) was 0.911 and the relative viability (COR-L 105; first compound 1 µM) was 0.918. The relative viability (H3255; first compound 0.01 µM) was 0.83, the relative viability (H3255; first compound 0.03162 µM) was 0.837 and the relative viability (H3255; first compound 0.1 µM) was 0.759. For the same compound, the relative viability (H3255; first compound 0.3162 µM) was 0.765, the relative viability (H3255; first compound 1 µM) was 0.558 and the relative viability (NCI-H520; first compound 0.01 µM) was 0.775. It also gave a relative viability (NCI-H520; first compound 0.03162 µM) of 0.755, a relative viability (NCI-H520; first compound 0.1 µM) of 0.689 and a relative viability (NCI-H520; first compound 0.3162 µM) of 0.728. For the same compound, the relative viability (NCI-H520; first compound 1 µM) was 0.794, the relative viability (LK-2; first compound 0.01 µM) was 0.343 and the relative viability (LK-2; first compound 0.03162 µM) was 0.267. For the same compound, the relative viability (LK-2; first compound 0.1 µM) was 0.345, the relative viability (LK-2; first compound 0.3162 µM) was 0.233 and the relative viability (LK-2; first compound 1 µM) was 0.27. It also gave a relative viability (NCI-H596; first compound 0.01 µM) of 0.564, a relative viability (NCI-H596; first compound 0.03162 µM) of 0.586 and a relative viability (NCI-H596; first compound 0.1 µM) of 0.581. It also gave a relative viability (NCI-H596; first compound 0.3162 µM) of 0.626, a relative viability (NCI-H596; first compound 1 µM) of 0.573 and a relative viability (NCI-H441; first compound 0.01 µM) of 0.731. It also gave a relative viability (NCI-H441; first compound 0.03162 µM) of 0.704, a relative viability (NCI-H441; first compound 0.1 µM) of 1.09 and a relative viability (NCI-H441; first compound 0.3162 µM) of 0.829. The relative viability (NCI-H441; first compound 1 µM) was 0.724, the relative viability (PC-3 [JPC-3]; first compound 0.01 µM) was 0.76 and the relative viability (PC-3 [JPC-3]; first compound 0.03162 µM) was 0.774. The relative viability (PC-3 [JPC-3]; first compound 0.1 µM) was 0.859, the relative viability (PC-3 [JPC-3]; first compound 0.3162 µM) was 0.896 and the relative viability (PC-3 [JPC-3]; first compound 1 µM) was 0.401. The relative viability (ChaGo-K-1; first compound 0.01 µM) was 0.69, the relative viability (ChaGo-K-1; first compound 0.03162 µM) was 0.785 and the relative viability (ChaGo-K-1; first compound 0.1 µM) was 0.578. It also gave a relative viability (ChaGo-K-1; first compound 0.3162 µM) of 0.813, a relative viability (ChaGo-K-1; first compound 1 µM) of 0.789 and a relative viability (SW 900; first compound 0.03162 µM) of 0.508. It also gave a relative viability (SW 900; first compound 0.1 µM) of 0.364, a relative viability (SW 900; first compound 0.3162 µM) of 0.544 and a relative viability (SW 900; first compound 1 µM) of 0.359. It also gave a relative viability (NCI-H1975; first compound 0.01 µM) of 0.672, a relative viability (NCI-H1975; first compound 0.03162 µM) of 0.69 and a relative viability (NCI-H1975; first compound 0.1 µM) of 0.733. The relative viability (NCI-H1975; first compound 0.3162 µM) was 0.641, the relative viability (NCI-H1975; first compound 1 µM) was 0.368 and the relative viability (NCI-H1734; first compound 0.01 µM) was 0.839. It also gave a relative viability (NCI-H1734; first compound 0.03162 µM) of 0.819, a relative viability (NCI-H1734; first compound 0.1 µM) of 0.631 and a relative viability (NCI-H1734; first compound 0.3162 µM) of 0.773. The relative viability (NCI-H1734; first compound 1 µM) was 0.819, the relative viability (HCC-366; first compound 0.01 µM) was 0.386 and the relative viability (HCC-366; first compound 0.03162 µM) was 0.362. For the same compound, the relative viability (HCC-366; first compound 0.1 µM) was 0.339, the relative viability (HCC-366; first compound 0.3162 µM) was 0.395 and the relative viability (HCC-366; first compound 1 µM) was 0.371. For the same compound, the relative viability (LOU-NH91; first compound 0.01 µM) was 0.623, the relative viability (LOU-NH91; first compound 0.03162 µM) was 0.881 and the relative viability (LOU-NH91; first compound 0.1 µM) was 0.894. It also gave a relative viability (LOU-NH91; first compound 0.3162 µM) of 1.04, a relative viability (LOU-NH91; first compound 1 µM) of 0.904 and a relative viability (A-427; first compound 0.01 µM) of 0.844. For the same compound, the relative viability (A-427; first compound 0.03162 µM) was 0.95, the relative viability (A-427; first compound 0.1 µM) was 0.843 and the relative viability (A-427; first compound 0.3162 µM) was 0.82. For the same compound, the relative viability (A-427; first compound 1 µM) was 0.86, the relative viability (SK-MES-1; first compound 0.01 µM) was 1.04 and the relative viability (SK-MES-1; first compound 0.03162 µM) was 1.06. The relative viability (SK-MES-1; first compound 0.1 µM) was 1.04, the relative viability (SK-MES-1; first compound 0.3162 µM) was 1.04 and the relative viability (SK-MES-1; first compound 1 µM) was 1.09. For the same compound, the relative viability (EMC-BAC-2; first compound 0.01 µM) was 0.458, the relative viability (EMC-BAC-2; first compound 0.03162 µM) was 0.512 and the relative viability (EMC-BAC-2; first compound 0.1 µM) was 0.533. The relative viability (EMC-BAC-2; first compound 0.3162 µM) was 0.496, the relative viability (EMC-BAC-2; first compound 1 µM) was 0.198 and the relative viability (EKVX; first compound 0.01 µM) was 0.723. For the same compound, the relative viability (EKVX; first compound 0.03162 µM) was 0.748, the relative viability (EKVX; first compound 0.1 µM) was 0.681 and the relative viability (EKVX; first compound 0.3162 µM) was 0.753. It also gave a relative viability (EKVX; first compound 1 µM) of 0.736, a relative viability (NCI-H1666; first compound 0.01 µM) of 0.985 and a relative viability (NCI-H1666; first compound 0.03162 µM) of 1.04. It also gave a relative viability (NCI-H1666; first compound 0.1 µM) of 1.19, a relative viability (NCI-H1666; first compound 0.3162 µM) of 1.03 and a relative viability (NCI-H1666; first compound 1 µM) of 1.04. It also gave a relative viability (NCI-H1755; first compound 0.01 µM) of 0.828, a relative viability (NCI-H1755; first compound 0.03162 µM) of 0.775 and a relative viability (NCI-H1755; first compound 0.1 µM) of 0.793. For the same compound, the relative viability (NCI-H1755; first compound 0.3162 µM) was 0.741, the relative viability (NCI-H1755; first compound 1 µM) was 0.834 and the relative viability (NCI-H2170; first compound 0.01 µM) was 0.804. The relative viability (NCI-H2170; first compound 0.03162 µM) was 0.882, the relative viability (NCI-H2170; first compound 0.1 µM) was 0.697 and the relative viability (NCI-H2170; first compound 0.3162 µM) was 0.784. For the same compound, the relative viability (NCI-H2170; first compound 1 µM) was 0.824.
